Source: patent US20040010021A1, “Pharmaceutical compositions for the treatment of depression or symptoms suggesting depression” (priority 2000, published 2004)
Entries after “also recorded” stand apart in the source; their conditions may differ.

Columns and labels:
[1] = test system: patients; details: cited from earlier work; for depression as adverse effect (literature): literature and Physicians' Desk Reference
[2] = test system: patients; details: 4-week clinical study
Source text: This is followed by a four-week (week 0-4) H2-blocker therapy performed on the basis of the former randomization applying either Quamatel®- or Zantac®—therapy. During randomization they have also taken the female-male ratio into consideration.
(§1) The describing statistics (median, quartiles, average, dispersion, case-number, minimum and maximum values) were given for all numerical data variables (age, body weight, height, overall scores for HAMD and MADRS, as well as HAMA). […] The global parameters (the patient's opinion of the changes in the mood and the general condition, the physician's opinion of the general condition of the patient, and the psychiatrist's opinion of the changes in depression and anxiety) were assessed by applying the median-test (SAS NPAR1 WAY method).

[3] = test system: patients; assay: Hamilton 24 (HAMD) depression scale, multicenter randomized controlled clinical study; type: in vivo, human; details: conclusion from the 4-week clinical study, vs ranitidine-group and baseline
Source text: The number of cases investigated was 119, which assured that the obtained data reach the level of statistical significance. […] During the statistical evaluation a probability level of p≦0.05 was regarded as significant.
Multicenter, randomized, controlled study; the study can be regarded blind with respect to the psychiatrist's assessment of the results.
4-week treatment period with the administration of the test—or reference medication.
On the occasion of the 1st visit (week-1-0) the recording of the medical history, physical examination, endoscopy (optional), the signing of the consent form, then the assessment of the extent of anxiety during the psychiatric examination, by using the Hamilton 24 (HAMD) and the MADRS (Montgomery Asberg) depression scales as well as the Hamilton Anxiety Rating Scale (HAMA). […]
as §1

Compound | depression as adverse effect (literature) [1] | efficacy in schizophrenia (literature case studies) ([1]; case studies) | gastrointestinal efficacy compared with ranitidine [2] | antidepressant / depression-reducing effect, conclusion of the study [3]
CN/C(=N/CCSCc1nc[nH]c1C)NC#N [cimetidine] | marked depressant effect | – | – | –
NC(N)=Nc1nc(CSCCC(N)=NS(N)(=O)=O)cs1 [famotidine] | depression as one of the adverse reactions | effective in the management of schizophrenia | practically displaying the same gastrointestinal efficacy | specific depression-reducing effect; also recorded: significantly detectable antidepressant effect
CNC(=C[N+](=O)[O-])NCCSCc1ccc(CN(C)C)o1 [ranitidine] | development of depression could be unquestionably associated with ranitidine-therapy | – | – | –
